Laboratory results published in patent publication US4018801A, “Substituted oxirane compounds” (The Dow Chemical Company, priority 1975, dated 1977).

Experiments:
Format in all cases: in vivo
Crabgrass = experiment: Pre-emergent control of seed germination, soil drench; details: for pre-emergence control: crabgrass; for % Control: pre-emergence, Crab Grass
Excerpt: (§1) Four parts by weight of the compound, 0.08 part of sorbitan trioleate (Span 85), and 0.02 part of a sorbitan monooleate polyoxyethylene derivative (Tween 80) are dipersed in 40 milliliters of acetone to produce a concentrate composition in the form of a water-dispersible liquid containing the predetermined oxirane compound as the sole active agent.
(§2) A portion of each of these concentrate compositions were separately dispersed in portions of water to provide aqueous compositions, containing 0.44 pound of the oxirane compound per 100 gallons of ultimate aqueous mixture.
(§3) The aqueous compositions were then employed for the treatment of seed beds of good agricultural soil which had been prepared and seeded with the seeds of various grass species and broadleaf plants. The grass species included white winter wheat, cultured rice, pigweeds, crabgrass, cheat grass, wild oats, Johnson grass, barnyard grass and yellow foxtail; and the broadleaf plants included corn. In the treating operations, a predetermined quantity of each of the compositions was applied to separate seedbeds as a soil drench at a rate of about 0.43 acre inch of aqueous composition per acre. The quantities were controlled to supply a substantial uniform dosage in a seedbed equivalent to 1.0, 2.0 and 5.0 pounds of the oxirane compound per acre. These dosages correspond, respectively, to a concentration, within the soil depth penetrated of about 1.6, 3.2 and 8.0 parts by weight of the oxirane compound per million parts by weight of soil. Other seedbeds were similarly seeded with the named plant species but were left untreated to serve as checks.
(§4) After about 2 weeks the seedbeds were examined to ascertain what control of the growth of seeds had been obtained.
(§5) were prepared as in Example 32 and similarly employed for the pre-emergencetreatment of various plant species.
(§6) Separate aqueous compositions containing the 2-(m-chlorophenyl)-2-(2,2,2-trichloroethyl)oxirane (Cmpd. A) and 2-(m-bromophenyl)-2-(2,2,2-trichloroethyl)oxirane (Cmpd. C) compounds of the present invention were prepared as in Example 32 for comparative per-emergence herbicide tests against noxious grass species with the known 2 -(p-chlorophenyl)-2-(2,2,2-trichloroethyl)oxirane (Cmpd. B) compound and 2-(p-bromophenyl)-2-(2,2,2-trichloroethyl)oxirane (Cmpd. D). The pre-emergence tests were conducted in Example 32 and the results of such tests are set forth below in Table III.
(§7) An aqueous composition containing 2-(α,α,α -trifluoro-m-tolyl)-2-(2,2,2-trichloroethyl)oxirane was prepared as described in Example 32. The composition was then employed according to the procedures of Example 32 except that lower concentrations of the oxirane compound were employed in the composition.
(§8) The percent control of the various plant species at the employed dosage rate of the 2-(α,α,α-trifluoro-m-tolyl)- 2-(2,2,2-trichloroethyl) supplied by the composition is set forth in the following Table IV.

Johnson Grass = experiment: as above; details: for pre-emergence control: Johnson grass; for % Control: pre-emergence, Johnson Grass
Excerpt: as §1, §2, §3, §4, §5, §6, §7, §8

Water-Grass = experiment: Comparative pre-emergence herbicide test
Excerpt: as §1, §2, §3, §4, §6

Yellow Foxtail = experiment: Pre-emergent control of seed germination, soil drench; details: yellow foxtail
Excerpt: as §1, §2, §3, §4, §5, §7, §8

Wild Oats = experiment: as above; details: wild oats
Excerpt: as §1, §2, §3, §4, §5, §7, §8

Barnyard Grass = experiment: as above; details: barnyard grass
Excerpt: as §1, §2, §3, §4, §5, §7, §8

Pigweeds = experiment: as above; details: pigweeds, 2.0 pounds per acre
Excerpt: as §1, §2, §3, §4, §5, §7, §8

[1] = 0.25 to 0.5 pounds per acre, respectively

In the case of Clc1cccc(C2(CC(Cl)(Cl)Cl)CO2)c1 (stereo not shown) [Example 7, 2-(m-chlorophenyl)-2-(2,2,2-trichloroethyl)oxirane], the pre-emergence control (Crabgrass; [1]) is reported as “Substantially complete pre-emergence control”, the “% Control” value (Crabgrass; 1/8 Lb/Acre) is reported as 100% and the “% Control” value (Crabgrass; 1/16 Lb/Acre) is reported as 100%. The pre-emergence control (Johnson Grass; [1]) was “Substantially complete pre-emergence control”, the “% Control” value (Johnson Grass; 1/8 Lb/Acre) was 100% and the “% Control” value (Johnson Grass; 1/16 Lb/Acre) was 100%. For the same molecule, the “% Control” value (Water-Grass; 1/8 Lb/Acre) was 90%, the “% Control” value (Water-Grass; 1/16 Lb/Acre) was 85% and the pre-emergence control (Yellow Foxtail; [1]) was “Substantially complete pre-emergence control”. The pre-emergence control (Wild Oats; [1]) was “Substantially complete pre-emergence control” and the pre-emergence control (Barnyard Grass; [1]) was “Substantially complete pre-emergence control”.
With Clc1ccc(C2(CC(Cl)(Cl)Cl)CO2)cc1 (stereo not shown) [Cmpd. B, 2-(p-chlorophenyl)-2-(2,2,2-trichloroethyl)oxirane, reference compound] the “% Control” value (Crabgrass; 1/8 Lb/Acre) was 20%, the “% Control” value (Crabgrass; 1/16 Lb/Acre) was 0% and the “% Control” value (Johnson Grass; 1/8 Lb/Acre) was 30%. For the same molecule, the “% Control” value (Johnson Grass; 1/16 Lb/Acre) was 0%, the “% Control” value (Water-Grass; 1/8 Lb/Acre) was 90% and the “% Control” value (Water-Grass; 1/16 Lb/Acre) was 60%.
For Cc1cccc(C2(CC(Cl)(Cl)Cl)CO2)c1 (stereo not shown) [Example 9, 2-(m-tolyl)-2-(2,2,2-trichloroethyl)oxirane], the pre-emergence control (Crabgrass; 2.0 pounds per acre) was “substantially complete control”, the pre-emergence control (Johnson Grass; 2.0 pounds per acre) was “substantially complete control” and the pre-emergence control (Yellow Foxtail; 2.0 pounds per acre) was “substantially complete control”. For the same molecule, the pre-emergence control (Wild Oats; 2.0 pounds per acre) was “substantially complete control”, the pre-emergence control (Pigweeds) was “substantially complete control” and the pre-emergence control (Barnyard Grass; 2.0 pounds per acre) was “substantially complete control”.
In the case of COc1cccc(C2(CC(Cl)(Cl)Cl)CO2)c1 (stereo not shown) [Example 12, 2-(m-methoxyphenyl)-2-(2,2,2-trichloroethyl)oxirane], the pre-emergence control (Crabgrass; 2.0 pounds per acre) is reported as “substantially complete pre-emergence control”, the pre-emergence control (Johnson Grass; 2.0 pounds per acre) is reported as “substantially complete pre-emergence control” and the pre-emergence control (Pigweeds) is reported as “substantially complete pre-emergence control”. The pre-emergence control (Barnyard Grass; 2.0 pounds per acre) was “substantially complete pre-emergence control”.
Fc1cccc(C2(CC(Cl)(Cl)Cl)CO2)c1 (stereo not shown) [Example 19, 2-(m-fluorophenyl)-2-(2,2,2-trichloroethyl)oxirane] was tested, and the pre-emergence control (Crabgrass; [1]) was “Substantially complete pre-emergence control”, the pre-emergence control (Johnson Grass; [1]) was “Substantially complete pre-emergence control” and the pre-emergence control (Yellow Foxtail; [1]) was “Substantially complete pre-emergence control”. For the same molecule, the pre-emergence control (Wild Oats; [1]) was “Substantially complete pre-emergence control” and the pre-emergence control (Barnyard Grass; [1]) was “Substantially complete pre-emergence control”.
With Clc1ccc(C2(CC(Cl)(Cl)Cl)CO2)cc1Cl (stereo not shown) [Example 5, 2-(3,4-dichlorophenyl)-2-(2,2,2-trichloroethyl)oxirane] the pre-emergence control (Crabgrass; 2.0 pounds per acre) was “substantially complete control”, the pre-emergence control (Johnson Grass; 2.0 pounds per acre) was “substantially complete control” and the pre-emergence control (Wild Oats; 2.0 pounds per acre) was “substantially complete control”. For the same molecule, the pre-emergence control (Pigweeds) was “substantially complete control”.
In the case of CCOc1cccc(C2(CC(Cl)(Cl)Cl)CO2)c1 (stereo not shown) [Example 14, 2-(m-ethoxyphenyl)-2-(2,2,2-trichloroethyl)oxirane], the pre-emergence control (Crabgrass; 2.0 pounds per acre) is reported as “substantially complete control”, the pre-emergence control (Johnson Grass; 2.0 pounds per acre) is reported as “substantially complete control” and the pre-emergence control (Wild Oats; 2.0 pounds per acre) is reported as “substantially complete control”. For the same molecule, the pre-emergence control (Barnyard Grass; 2.0 pounds per acre) was “substantially complete control”.
ClC(Cl)(Cl)CC1(c2ccc(Br)cc2)CO1 (stereo not shown) [Cmpd. D, 2-(p-bromophenyl)-2-(2,2,2-trichloroethyl)oxirane, reference compound] was tested, and the “% Control” value (Crabgrass; 1/8 Lb/Acre) was 0%, the “% Control” value (Crabgrass; 1/16 Lb/Acre) was 0% and the “% Control” value (Johnson Grass; 1/8 Lb/Acre) was 25%. For the same molecule, the “% Control” value (Johnson Grass; 1/16 Lb/Acre) was 0%, the “% Control” value (Water-Grass; 1/8 Lb/Acre) was 60% and the “% Control” value (Water-Grass; 1/16 Lb/Acre) was 30%.
